Blank lines part the entries; values can stand above or below the compound they belong to.
Columns and labels:
Assay type in all cases: biochemical
Settings in all cases: ATP, MgCl2, 200 mM Tris-HCl, optimal pH about 7.0, optimal temperature 50 °C
Sm4CL2 [1] = biological target: T1, Sm4CL2 (Selaginella moellendorffii, UniProt D8S6A2); experiment: UV absorption at […] nm, CoA ester formation
T1 construct: gene 4CL2-1; 75-79 kDa with tags (tags kept)

Sm4CL2 [2] = biological target: T1, Sm4CL2; experiment: UV absorption at […] nm, CoA ester formation; remark: listed apart in the source
Sm4CL2 [3] = biological target: T1, Sm4CL2; experiment: HPLC quantification of CoA ester after […] min
Sm4CL2 [4] = biological target: T1, Sm4CL2; experiment: UV absorption at […] nm, CoA ester formation; remark: listed apart in the source

T1 sequence (D8S6A2 entry or part of it): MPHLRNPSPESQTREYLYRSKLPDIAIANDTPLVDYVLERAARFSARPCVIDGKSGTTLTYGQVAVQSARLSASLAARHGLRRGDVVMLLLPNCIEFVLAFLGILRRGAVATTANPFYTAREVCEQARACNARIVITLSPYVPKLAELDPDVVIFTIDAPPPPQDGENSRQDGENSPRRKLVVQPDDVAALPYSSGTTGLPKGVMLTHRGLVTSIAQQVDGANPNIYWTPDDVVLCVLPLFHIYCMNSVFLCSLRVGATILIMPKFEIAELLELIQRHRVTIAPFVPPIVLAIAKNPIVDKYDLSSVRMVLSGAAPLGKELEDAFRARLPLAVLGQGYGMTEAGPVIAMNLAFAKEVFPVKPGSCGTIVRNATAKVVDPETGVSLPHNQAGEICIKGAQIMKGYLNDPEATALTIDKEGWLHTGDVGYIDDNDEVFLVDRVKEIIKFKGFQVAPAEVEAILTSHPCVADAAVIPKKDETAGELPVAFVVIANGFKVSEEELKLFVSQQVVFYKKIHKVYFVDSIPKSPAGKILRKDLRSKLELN

SMILES: O=C(O)/C=C/c1ccc(O)c(O)c1 [caffeic acid]
Km (Sm4CL2 [1]): 19 ± 2.61 µM

SMILES: O=C(O)/C=C/c1ccccc1 [cinnamic acid]
Km (Sm4CL2 [2]): 127 ± 11.6 µM

The next lines start with the values.

Km (Sm4CL2 [3]): 220 ± 36.9 µM
SMILES: O=C(O)CCc1ccc(O)cc1 [dihydro-p-coumaric acid]

Km (Sm4CL2 [1]): 96 ± 13.4 µM
SMILES: COc1cc(/C=C/C(=O)O)ccc1O [ferulic acid]

Km (Sm4CL2 [4]): 19.7 ± 2.92 µM
SMILES: O=C(O)/C=C/c1ccc(O)cc1 [p-coumaric acid]
